{"source": "paper PMC4076215", "about": "“Nickel(II) Complex of Polyhydroxybenzaldehyde N4-Thiosemicarbazone Exhibits Anti-Inflammatory Activity by Inhibiting NF-κB Transactivation” (PLoS ONE, 2014)", "key": {"[1]": {"experiment": "Liver functional test (serum) after oral dosing", "assay_type": "in vivo, C57BL/6 mice", "conditions": "after two weeks", "experimental": "Liver functional test. C57BL/6 mice at age 8-12 weeks old were administrated orally with control PBS or with various concentrations (125 mg/kg, 250 mg/kg and 500 mg/kg) of complex 5. n= 6 (3 male and 3 female mice)/group. After two weeks, sera were collected from the mice for liver functional test.\nShown were mean ± SD. TBIL: Total Bilirubin, BC: Conjugated\nBilirubin, ALP: Alkaline Phophatase, ALT: Alanine Aminotransferase, AST: Aspartate Transaminase, GGT: G-Glutamyl Transferase."}, "[2]": {"experiment": "Renal functional test (serum) after oral dosing", "assay_type": "in vivo, C57BL/6 mice", "conditions": "after two weeks", "experimental": "Renal functional test. C57BL/6 mice at age 8-12 weeks old were administrated orally with control PBS or\nwith various concentrations (125 mg/kg, 250 mg/kg and 500 mg/kg) of complex 5. n= 6 (3 male and 3\nfemale mice)/group. After two weeks, sera were collected from the mice for renal functional test."}, "[3]": {"tested_on": "HeLa S3 cells", "experiment": "Cell proliferation (MTT) assay, HeLa S3", "protocol": "A total number of 1.0×10^4 cells per well were seeded into a 96-well plate and incubated overnight at 37°C in 5% CO2. The next day, the cells were treated with a two-fold serial dilution of compounds. MTT assays were performed as described [27]. After 48 h, (4,5-dimethylthiazol-2-yl-2,5-diphenyltetrazoliumbromide) was added at 2 mg/ml. After 3 h of incubation at 37°C in 5% CO2, DMSO was added to dissolve the formazan crystals. The plates were then read in Chameleon multitechnology microplate reader (Hidex, Turku, Finland) at 570 nm absorbance. The ratio of the absorbance of treated cells to the absorbance of DMSO-treated control cells was determined as percentage cell viability.\nTo examine whether synthesized Ni(II) thiosemicarbazone ligands or Ni(II)-phosphine complexes were cytotoxic, we treated RAW264.7 (leukemic monocyte macrophage) and HeLa S3 (cervical adenocarcinoma) cells with these compounds for 48 h. The cell viability was determined with MTT assays [33]."}}}
{"smiles": "NC1=[S+][Ni-2]2([P+](c3ccccc3)(c3ccccc3)c3ccccc3)[O]c3c(O)cccc3C=[N+]2N1.[Cl-]", "note": "[complex 5, {2-[(2-Carbamothiolylhydrazin-1-ylidene-[kappa]2N1,S)methyl]-6-hydroxyphenolato-[kappa]O1}(triphenylphosphine-[kappa]P)nickel(II) chloride]", "values": [{"measurement": "ALP (Alkaline Phophatase)", "setting": "[1]; 125 mg/kg oral", "value": 192.00, "unit": "IU/L"}, {"measurement": "ALT (Alanine Aminotransferase)", "setting": "[1]; 125 mg/kg oral", "value": 69.00, "unit": "IU/L"}, {"measurement": "AST (Aspartate Transaminase)", "setting": "[1]; 125 mg/kg oral", "value": 421.00, "unit": "IU/L"}, {"measurement": "Albumin", "setting": "[1]; 125 mg/kg oral", "value": 18.00, "unit": "g/L"}, {"measurement": "BC (Conjugated Bilirubin)", "setting": "[1]; 125 mg/kg oral", "value": "< 1", "unit": "µmol/L"}, {"measurement": "GGT (G-Glutamyl Transferase)", "setting": "[1]; 125 mg/kg oral", "value": "< 3", "unit": "IU/L"}, {"measurement": "Globulin", "setting": "[1]; 125 mg/kg oral", "value": 42.00, "unit": "g/L"}, {"measurement": "TBIL (Total Bilirubin)", "setting": "[1]; 125 mg/kg oral", "value": 3.00, "unit": "µmol/L"}, {"measurement": "Total Protein", "setting": "[1]; 125 mg/kg oral", "value": 60.00, "unit": "g/L"}, {"measurement": "ALP (Alkaline Phophatase)", "setting": "[1]; 250 mg/kg oral", "value": 195.00, "unit": "IU/L"}, {"measurement": "ALT (Alanine Aminotransferase)", "setting": "[1]; 250 mg/kg oral", "value": 70.00, "unit": "IU/L"}, {"measurement": "AST (Aspartate Transaminase)", "setting": "[1]; 250 mg/kg oral", "value": 414.00, "unit": "IU/L"}, {"measurement": "Albumin", "setting": "[1]; 250 mg/kg oral", "value": 17.00, "unit": "g/L"}, {"measurement": "BC (Conjugated Bilirubin)", "setting": "[1]; 250 mg/kg oral", "value": "< 1", "unit": "µmol/L"}, {"measurement": "GGT (G-Glutamyl Transferase)", "setting": "[1]; 250 mg/kg oral", "value": "< 3", "unit": "IU/L"}, {"measurement": "Globulin", "setting": "[1]; 250 mg/kg oral", "value": 42.00, "unit": "g/L"}, {"measurement": "TBIL (Total Bilirubin)", "setting": "[1]; 250 mg/kg oral", "value": 2.50, "unit": "µmol/L"}, {"measurement": "Total Protein", "setting": "[1]; 250 mg/kg oral", "value": 59.00, "unit": "g/L"}, {"measurement": "ALP (Alkaline Phophatase)", "setting": "[1]; 500 mg/kg oral", "value": 219.50, "unit": "IU/L"}, {"measurement": "ALT (Alanine Aminotransferase)", "setting": "[1]; 500 mg/kg oral", "value": 70.00, "unit": "IU/L"}, {"measurement": "AST (Aspartate Transaminase)", "setting": "[1]; 500 mg/kg oral", "value": "316.50 ± 78.49", "unit": "IU/L"}, {"measurement": "Albumin", "setting": "[1]; 500 mg/kg oral", "value": 16.00, "unit": "g/L"}, {"measurement": "BC (Conjugated Bilirubin)", "setting": "[1]; 500 mg/kg oral", "value": "< 1", "unit": "µmol/L"}, {"measurement": "GGT (G-Glutamyl Transferase)", "setting": "[1]; 500 mg/kg oral", "value": "< 3", "unit": "IU/L"}, {"measurement": "Globulin", "setting": "[1]; 500 mg/kg oral", "value": 37.50, "unit": "g/L"}, {"measurement": "TBIL (Total Bilirubin)", "setting": "[1]; 500 mg/kg oral", "value": 3.00, "unit": "µmol/L"}, {"measurement": "Total Protein", "setting": "[1]; 500 mg/kg oral", "value": 53.50, "unit": "g/L"}, {"measurement": "Anion Gap", "setting": "[2]; 125 mg/kg oral", "value": 24.80, "unit": "mmol/L"}, {"measurement": "CO2", "setting": "[2]; 125 mg/kg oral", "value": 18.18, "unit": "mmol/L"}, {"measurement": "Chlorine", "setting": "[2]; 125 mg/kg oral", "value": 110.80, "unit": "mmol/L"}, {"measurement": "Creatinine", "setting": "[2]; 125 mg/kg oral", "value": "< 9", "unit": "µmol/L"}, {"measurement": "Potassium", "setting": "[2]; 125 mg/kg oral", "value": "6.68 ± 1.12", "unit": "mmol/L"}, {"measurement": "Sodium", "setting": "[2]; 125 mg/kg oral", "value": 147.00, "unit": "mmol/L"}, {"measurement": "Urea", "setting": "[2]; 125 mg/kg oral", "value": 10.72, "unit": "mmol/L"}, {"measurement": "Anion Gap", "setting": "[2]; 250 mg/kg oral", "value": 26.67, "unit": "mmol/L"}, {"measurement": "CO2", "setting": "[2]; 250 mg/kg oral", "value": 16.36, "unit": "mmol/L"}, {"measurement": "Chlorine", "setting": "[2]; 250 mg/kg oral", "value": 111.00, "unit": "mmol/L"}, {"measurement": "Creatinine", "setting": "[2]; 250 mg/kg oral", "value": "< 9", "unit": "µmol/L"}, {"measurement": "Potassium", "setting": "[2]; 250 mg/kg oral", "value": "6.50 ± 0.52", "unit": "mmol/L"}, {"measurement": "Sodium", "setting": "[2]; 250 mg/kg oral", "value": 147.50, "unit": "mmol/L"}, {"measurement": "Urea", "setting": "[2]; 250 mg/kg oral", "value": 9.96, "unit": "mmol/L"}, {"measurement": "Anion Gap", "setting": "[2]; 500 mg/kg oral", "value": 27.00, "unit": "mmol/L"}, {"measurement": "CO2", "setting": "[2]; 500 mg/kg oral", "value": 16.14, "unit": "mmol/L"}, {"measurement": "Chlorine", "setting": "[2]; 500 mg/kg oral", "value": 110.83, "unit": "mmol/L"}, {"measurement": "Creatinine", "setting": "[2]; 500 mg/kg oral", "value": "< 9", "unit": "µmol/L"}, {"measurement": "Potassium", "setting": "[2]; 500 mg/kg oral", "value": "5.83 ± 0.74", "unit": "mmol/L"}, {"measurement": "Sodium", "setting": "[2]; 500 mg/kg oral", "value": 148.33, "unit": "mmol/L"}, {"measurement": "Urea", "setting": "[2]; 500 mg/kg oral", "value": 9.56, "unit": "mmol/L"}, {"measurement": "Cell viability", "setting": "[3]; HeLa S3, 6.25 µg/ml, 4 h treatment", "value": "> 90", "unit": "%"}, {"measurement": "IC50 (cell viability, MTT)", "setting": "[3]; HeLa S3 cells, 48 h treatment", "value": "29.31 ± 1.10", "unit": "µg/mL"}]}
